Experimental data published in patent US12636366B2, “Ruthenium (II) complexes and conjugates thereof for use as photosensitizer agent in photodynamic therapy” (Paris Sciences et Lettres, priority 2019, dated 2026).
Like-named read-outs stand apart in the source and are kept apart here.

What was measured:
[1] = tested on: non-cancerous retina pigmented epithelial cell line (RPE-1); test: Dark and light cytotoxicity, resazurin cell viability assay, RPE-1; assay type: cell-based
Procedure: (§1) HeLa and CT-26 cell lines were cultured in DMEM media (Gibco, Life Technologies, USA) supplemented with 10% of fetal calf serum (Gibco). U87 and U373 cell lines were cultured in MEM media with addition of 1% of MEM NEAA (non-essential aminoacids) (Gibco) and 10% of fetal calf serum. RPE-1 cells were cultured in DMEM/F-12 (Gibco) supplemented with 10% of fetal calf serum. RPE-1 stable cells lines were cultured as RPE-1 cells with addition of geneticin (0.5 mg/ml) (Gibco). All cell lines were complemented with 100 U/ml penicillin-streptomycin mixture (Gibco), and maintained in humidified atmosphere at 37° C. and 5% of CO2.
(§2) Dark and light cytotoxicity of the Ru(II) complexes was assessed by fluorometric cell viability assay using resazurin (ACROS Organics). For dark and light cytotoxicity, cells were seeded in triplicates in 96 well plates at a density of 4000 cells per well in 100 μl, 24 h prior to treatment. The medium was then replaced with increasing concentration of the tested complexes and cells were incubated for 4 h. Medium was then replaced for fresh complete medium. Cells used for light cytotoxicity experiment were exposed to: 480 nm light for 10 min, 510 nm for 40 min, 540 for 60 min or 595 nm for 120 min in a 96-well plate using a LUMOS-BIO photoreactor (Atlas Photonics). Each well was individually illuminated with a LED at constant current. After irradiation cells were kept for another 44 h in the incubator and the medium was replaced by fresh complete medium containing resazurin (0.2 mg ml^−1 final concentration). After 4 h incubation at 37° C., the fluorescence signal of the resorufin product was read by SpectraMax M5 microplate reader (ex: 540 nm em: 590 nm). IC50 values were calculated using GraphPad Prism software.
(§3) The potential of the complexes to act as PDT PSs was determined on mouse colon carcinoma cells (CT-26), human glioblastoma cells (U87 and U373), human cervical carcinoma cells (HeLa) as well as non-cancerous retina pigmented epithelial cell line (RPE-1) according to the method described above. […] Ideally, a PDT PS should be non-toxic in the dark and highly toxic upon light activation. […] The toxicity of the compounds upon light irradiation (480 nm, 10 min, 3.21 J cm^−2) was then investigated.

[2] = tested on: human cervical carcinoma cells (HeLa); test: Dark and light cytotoxicity, resazurin cell viability assay, HeLa; assay type: cell-based
Procedure: as §1, §2, §3

[3] = tested on: CT-26 mouse colon carcinoma cells; test: Dark and light cytotoxicity, resazurin cell viability assay, CT-26; assay type: cell-based; settings: for PI (IC50 in the dark/IC50 upon light irradiation): CT-26, 480 nm
Procedure: as §1, §2, §3

[4] = tested on: human glioblastoma cells (U87); test: Dark and light cytotoxicity, resazurin cell viability assay, U87; assay type: cell-based
Procedure: as §1, §2, §3

[5] = Singlet oxygen measurement, direct evaluation (1O2 luminescence at 1270 nm); assay type: physicochemical; settings: direct method, excitation at 450 nm; for Singlet oxygen quantum yield Φ(1O2), CH3CN Direct / Singlet oxygen quantum yield Φ(1O2), D2O Direct: average of three, +-10%
Procedure: The samples were prepared in an air saturated CH3CN or D2O solution with an absorbance of 0.2 at 450 nm. This solution was irradiated in fluorescence quartz cuvettes (width 1 cm) using a mounted M450LP1 LED (Thorlabs) whose irradiation, centered at 450 nm, has been focused with aspheric condenser lenses. The intensity of the irradiation has been varied using a T-Cube LED Driver (Thorlabs) and measured with an optical power and energy meter. The emission signal was focused and collected at right angle to the excitation pathway and directed to a Princeton Instruments Acton SP-2300i monochromator equipped with 600 g/mm grating blazed at 1200 nm. A longpass glass filter was placed in front of the monochromator entrance slit to cut off light at wavelengths shorter than 850 nm. The slits for detection were fully open. As a detector an EO-817L IR-sensitive liquid nitrogen cooled germanium diode detector (North Coast Scientific Corp.) has been used. The singlet oxygen luminesce at 1270 nm was measured by recording spectra from 1100 to 1400 nm. For the data analysis, the singlet oxygen luminescence peaks at different irradiation intensities were integrated. The resulting areas were plotted against the percentage of the irradiation intensity and the slope of the linear regression calculated. The absorbance of the sample was corrected with an absorbance correction factor. As reference for the measurement in an CH3CN solution phenalenone (Φphenaleone=0.95)^33 and for the measurement in a D2O solution [Ru(bipy)3]Cl2 (ΦRu(bipy)3C12=0.22)^31 was used and the singlet oxygen quantum yields were calculated using the following formula: […]
Additionally, the DFT calculations were able to characterize the lowest energy absorption band as a MLCT transition with a triplet state. With this in hand, a quantitative evaluation of singlet oxygen (^1O2) was performed to assess the potential of the PSs in PDT, by two methods: 1) direct by measurement of the luminescence of ^1O2, 2) indirect by measurement of the variation in absorbance of a reporter molecule, as described above. In the first method, the efficiency of the production of ^1O2 was assessed by measuring its phosphorescence at 1270 nm. Worthy of note, the possibility of detection in this experiment is affected by its environment as well as the used setup. With the setup used in this study, we could only detect Φ(^1O2) larger than 0.20 based on a low peak-to-noise ratio. In the second method (indirect method), ^1O2 is reacting with imidazole (in CH3CN) and histidine (in PBS buffer) to a trans-annular peroxide adduct. This can further quench the absorbance of the reporter molecule p-nitrosodimethyl aniline (RNO), which has been monitored by UV/VIS spectroscopy. In both methods, the ^1O2 production has been compared with a reference molecule, namely a solution of phenalenone in CH3CN (Φ(^1O2)phenaleone=0.95)^33 and a solution of [Ru(bipy)3]Cl2 in water Φ(^1O2)Ru(bipy)3Cl2=0.22)^31. […] In comparison, the values changed drastically in an aqueous solution. […] They have untypically low Φ(^1O2) values in CH3CN (0.22-0.35) for Ru(II) polypyridyl complexes. Subsequently, the ^1O2 production was also quite low in an aqueous environment.

[6] = RPE-1, dark, read-out: IC50 Dark
[7] = RPE-1, light 480 nm, 10 min, 3.21 J cm^−2, read-out: IC50 Light
[8] = light 480 nm, 10 min, 3.21 J cm^−2, read-out: IC50 Light
[9] = CT-26, dark, 4 h incubation, read-out: IC50 Dark
[10] = CT-26, light 480 nm, 10 min, 3.21 J cm^−2, read-out: IC50 Light
[11] = U87, light 480 nm, 10 min, 3.21 J cm^−2, read-out: IC50 Light

Compound | IC50 [1, 6] [µM] | IC50 [1, 7] [µM] | IC50 ([2]; dark, read-out: IC50 Dark) [µM] | IC50 [2, 8] [µM] | IC50 [3, 9] [µM] | IC50 [3, 10] [µM] | PI (IC50 in the dark/IC50 upon light irradiation) ([4]; U87, 480 nm, 10 min) | IC50 ([4]; U87, dark, read-out: IC50 Dark) [µM] | IC50 [4, 11] [µM] | Singlet oxygen quantum yield Φ(1O2), CH3CN Direct [5] | Singlet oxygen quantum yield Φ(1O2), D2O Direct [5] | PI (IC50 in the dark/IC50 upon light irradiation) ([3]; 10 min) | Singlet oxygen quantum yield Φ(1O2), D2O Direct (not determinable) [5]
F[P-](F)(F)(F)(F)F.F[P-](F)(F)(F)(F)F.[Ru+2].c1ccc(-c2ccccn2)nc1.c1cnc2c(c1)ccc1cccnc12.c1cnc2c(c1)ccc1cccnc12 [Compound 1, (Bipyridine)bis(1,10-phenanthroline)ruthenium(II)hexafluorophosphate] | > 100 | > 100 | > 100 | > 100 | > 100 | > 100 | >1 | > 100 | 93.7 ± 2.5 | 0.57 | 0.27 | – | –
((E,E′)-4,4′-Bis(N,N′-dimethylaminovinyl)-2,2′-bipyridine)bis(1,10-phenanthroline)ruthenium(II) hexafluorophosphate [Compound 5] | > 100 | > 100 | > 100 | > 100 | > 100 | 52.5 ± 6.04 | – | > 100 | > 100 | 0.24 | – | >2 | n.d. (n.d. = not determinable, Φ(^1O2) < 0.20)
(4,4′-Dibromo-2,2′-bipyridine)bis(1,10-phenanthroline)ruthenium(II) hexafluorophosphate [Compound 3] | > 100 | > 100 | > 100 | > 100 | > 100 | 85.7 ± 9.47 | – | > 100 | > 100 | 0.55 | not detectable | >1 | n.d. (n.d. = not determinable, Φ(^1O2) < 0.20)
